Assay results from US9913827B2, “Bendamustine derivatives and methods of using same” (IGNYTA, INC., priority 2012, dated 2018).
Where two headings read alike, the source gives them in different places. Marks after values point to notes of the source that are not given here.

How the values were obtained:
[1] = Rat plasma pharmacokinetics at 3 mg-eq/kg i.v.; settings: solution formulation 3 mg-eq/kg i.v.
[2] = Tumor efficacy PK group, H-460 tumor-bearing mice: tumor and plasma levels; settings: for Ester level in Plasma at 1 hour / Ester level in Tumor at 1 hour: 80 mg/kg i.v.
Procedure: The formulations were administrated as 100 μL dose volume through tail vein injection within 30 minutes after compounds were formulated. All the mice were weighed and tumors measured twice weekly. At the last day of the study, plasma, tumor, lung, liver, spleen, left kidney, brain and legs were collected and quickly frozen for further analysis two hours post-dosing.
(§1) A portion of the tumor bearing mice were dosed as a satellite PK group. Each group was dosed as described for the tumor efficacy group, however the PK group was euthanized and tissue samples collected at 1, 3 and 6 hours post dosing on day 2. The tissues collected included blood, lung, liver and tumor. Samples were analyzed for bendamustine HCl and the corresponding ester analogue as described in the LC-MS protocol section.
(§2) Plasma and other tissues were prepared for high performance liquid chromatography (HPLC)/mass spectrometric analysis according to a standard protocol following protein precipitation with acetonitrile containing an internal standard. The samples were then analyzed for both bendamustine HCl and bendamustine esters of the invention and alprenolol (internal standard) via HPLC coupled with tandem mass spectrometry. Tissue samples were homogenized in sodium phosphate buffer and the value obtained from the assay was multiplied by 3 to correct for dilution during processing.

MDA-MB-231 xenografts = assay: Nude mouse MDA-MB-231 tumor efficacy study; assay type: in vivo, athymic nude mice
Procedure: Charles River Labs athymic nude mice were subcutaneous injected with 5×10^6 human tumor cells in matrigel. The tumor volume was monitored until an average tumor size of ˜150 mm^3 was obtained in the mouse population The mice were then randomized in to one of the nine treatment groups (summarized in table below) with a population of 10 mice per group (n=10). Each of the formulations was dosed at 100 μL fixed volume via tail vein injection on day 1 and day 2 of the study. Mice were weighed and the tumor volume measured every 3-4 days for 3 weeks of the study duration.

[3] = tested on: H460 tumor cells (large cell lung cancer); assay: Nude mouse H460 tumor efficacy study; assay type: in vivo, nu/nu mouse
Procedure: 2×10^6 cells/100 ul in the mix of medium and Matrigel (1:1 ratio) solution was injected into right back flank of each nu/nu mouse. The implanted mice were monitored and measured with electric calipers. The study started when the tumors reached ˜150 mm^3 in size. The mice were measured and randomized into 9 groups with 10 mice in each group per the below table: […]

[4] = tested on: RPMI 8226 (Human Plasmacytoma, Myeloma B Cells); assay type: in vivo, CB.17 SCID female mice; settings: day 46
Procedure: RPMI 8226 (Human Plasmacytoma, Myeloma B Cells) ATCC #CCL-155;
80 CB.17 SCID female mice, 4-6 weeks old, 16-20 grams, obtained from Harlan animal breeding center
Cells (originated from ATCC) were cultured on RPMI medium. Cell suspension was centrifuged and resuspended in 50% Matrigel/HBSS to a final concentration of 7×10^7 cells/ml. The suspension was implanted s.c. in the right flank of the anesthetized mouse at a volume of 100 μl.
Seven ml saline were added to the original vial containing 3.5 mg powder resulting in 0.5 mg/ml. Three ml of this solution were added to 27 ml saline to receive 0.05 mg/ml concentration.
bendamustine preparation: 13.5 mg was dissolved in 3.6 ml of 1:1 mixture of 0.9% saline/5% mannitol just before the treatment. 1.05 ml of this solution was added to 0.95 ml diluent for 2 mg/ml solution.
1.05 ml of this solution was added to 0.95 ml diluent for 2 mg/ml solution.
On day 21, mice were sorted by the optimal average tumor volume (˜150 mm^3) and were allocated into eight groups of 9 mice each.
[formula] The analysis of weight gain and tumor volume progression was made using one-way ANOVA followed by Tukey post-hoc comparisons. Results

[5] = Tumor efficacy PK group, MB-231 tumor-bearing mice: tumor and plasma levels; settings: for Ester level in Plasma at 1 hour / Ester level in Tumor at 1 hour: 80 mg/kg i.v.
Procedure: as §1, §2

MB-231 (HBC) = assay: MTS cell assay (cell proliferation), MB-231; assay type: cell-based; settings: Homo sapiens, 72 hours
Procedure: Charles River Labs athymic nude mice bearing MDA-MB-231 breast carcinoma cell line subcutaneous xenografts (5×10^6 cells in matrigel) were sacrificed to make a tumor isolate. Using sterile instruments and working aseptically, the tumors were removed from the euthanized animal. The tumor was placed in a 50 mL sterile conical tube and 5 mL of trypsin was added. The tumor was cut into small pieces and incubated at 37° C. for 30 minutes. After incubation, a cell strainer was placed on a second, sterile, 50 mL conical tube and the contents of the first tube were placed in the cell strainer. The tissue was forced through the filter using the flat end of a syringe plunger. The cell strainer was washed with 5 mLs of media containing FBS. The cells were spun down and the supernatant was discarded. The cells were resuspended in 20 mLs of complete media containing P/S and placed in a 75 cm flask.
(§3) Human carcinoma cells (2,000 cells/well) were incubated with the desired concentration of the test molecule (0-200 μM) for 72 hours. The cells were then incubated with MTS solution (Promega) for 1-2 hours, and the compounds effects on cell proliferation was determined by measuring the absorbance at 490 nm. Cell growth was expressed as a percent of the appropriate control (placebo). […] All data reported was the mean±SE of three independent experiments.

H-460 (NSCLC) = assay: MTS cell assay (cell proliferation), H-460; assay type: cell-based; settings: Homo sapiens, NCI-H460, 72 hours
Procedure: as §3

[6] = Solution, 37.5 mg/kg i.v. day 1 and 2
[7] = HSA nanoparticle, 80 mg/kg i.v. day 1 and 2
[8] = Solution, 80 mg/kg i.v. day 1 and 2
[9] = HSA nanoparticle, 80 mg/kg i.v.

CCCCCC(CCCC)OC(=O)CCCc1nc2cc(N(CCCl)CCCl)ccc2n1C (stereo not shown) [5-decanyl ester, 4-{5-[Bis-(chloroethyl)-amino]-1-methyl-1H-benzimidazol-2-yl}butyric acid 5-decyl ester]
Plasma levels of the dosed Ester [1]: All < MQL

Cn1c(CCCC(=O)O)nc2cc(N(CCCl)CCCl)ccc21 [Bendamustine, 4-[5-[bis(2-chloroethyl)amino]-1-methylbenzimidazol-2-yl]butanoic acid]
BM1 level in Plasma at 1 hour ([2]; Solution, 37.5 mg/kg i.v.): 1550 ng/mL | BM1 level in Tumor at 1 hour ([2]; Solution, 37.5 mg/kg i.v.): 1472 ng/mL | % Morbidity (MDA-MB-231 xenografts; [6]): 10% | % Mortality (MDA-MB-231 xenografts; [6]): 0% | % Tumor Inh. (MDA-MB-231 xenografts; [6]): 77% | % Morbidity ([3]; Solution, 37.5 mg/kg i.v.): 0/0% | % Mortality ([3]; Solution, 37.5 mg/kg i.v.): 0/0% | % TGI ([4]; 20 mg/kg iv on days 1 and 2): 66*** % | No. of CR ([4]; 20 mg/kg iv on days 1 and 2): 0 | No. of PR ([4]; 20 mg/kg iv on days 1 and 2): 0 | Δ mean tumor volume, (mean ± se) ([4]; 20 mg/kg iv on days 1 and 2): 205 ± 44 | No. of CR ([4]; 37.5 mg/kg iv on days 1 and 2): 0 | No. of PR ([4]; 37.5 mg/kg iv on days 1 and 2): 0 | Δ mean tumor volume, (mean ± se) ([4]; 37.5 mg/kg iv on days 1 and 2): 113 ± 23 | % TGI ([4]; 37.5 mg/kg iv on days 1 and 2, 37.5 mg/kg): 81% | BM1 level in Plasma at 1 hour ([5]; Solution, 37.5 mg/kg i.v.): 906 ng/mL | BM1 level in Tumor at 1 hour ([5]; Solution, 37.5 mg/kg i.v.): 558 ng/mL

Cn1c(CCCC(=O)OC2CCCCC2)nc2cc(N(CCCl)CCCl)ccc21 [Cy-hexyl bendamustine ester, 4-{5-[Bis-(chloroethyl)-amino]-1-methyl-1H-benzimidazol-2-yl}butyric acid cyclohexyl ester]
Plasma levels of the dosed Ester [1]: All < MQL

CCCCCCCCOC(=O)CCCc1nc2cc(N(CCCl)CCCl)ccc2n1C [bendamustine C8 ester, 4-{5-[Bis-(chloroethyl)-amino]-1-methyl-1H-benzimidazol-2-yl}butyric aid octyl ester]
IC50 (MB-231 (HBC)): 53.1 µM | IC50 (H-460 (NSCLC)): 49 µM

CCCCCCCCCCCCCCOC(=O)CCCc1nc2cc(N(CCCl)CCCl)ccc2n1C [bendamustine C14 ester, 4-{5-[Bis-(chloroethyl)-amino]-1-methyl-1H-benzimidazol-2-yl}butyric acid tetradecyl ester]
Ester level in Plasma at 1 hour ([2]; HSA nanoparticle): 3648 ng/mL | Ester level in Tumor at 1 hour ([2]; HSA nanoparticle): 4570 ng/mL | Ester level in Plasma at 1 hour ([2]; Solution): 32233 ng/mL | Ester level in Tumor at 1 hour ([2]; Solution): 8570 ng/mL | % Morbidity (MDA-MB-231 xenografts; [7]): 60% | % Mortality (MDA-MB-231 xenografts; [7]): 0% | % Morbidity (MDA-MB-231 xenografts; [8]): 40% | % Mortality (MDA-MB-231 xenografts; [8]): 0% | % Tumor Inh. (MDA-MB-231 xenografts; [8]): 90% | % Morbidity [3, 9]: 10% | % Mortality [3, 9]: 0% | % Tumor Inh. [3, 9]: 40% | % Morbidity ([3]; Solution, 80 mg/kg i.v.): 100% | % Mortality ([3]; Solution, 80 mg/kg i.v.): 40% | % Tumor Inh. ([3]; Solution, 80 mg/kg i.v.): 81% | Ester level in Plasma at 1 hour ([5]; HSA nanoparticle): 5727 ng/mL | Ester level in Tumor at 1 hour ([5]; HSA nanoparticle): 10430 ng/mL | Ester level in Plasma at 1 hour ([5]; Solution): 14 ng/mL | Ester level in Tumor at 1 hour ([5]; Solution): 396 ng/mL
